For test [1], the target named is T1, human Urokinase (Homo sapiens, UniProt P00749).
T1 construct: purchased American Diagnostica, CT, USA
Description: Urokinase (uPA) inhibition, chromogenic substrate hydrolysis, Ki app. The format is biochemical.
Description: (§1) The effectiveness of compounds of the present invention as inhibitors of Urokinase and Factor Xa is determined using synthetic substrates and purified Urokinase and purified human Factor Xa respectively.
(§2) The rates of hydrolysis by the chromagenic substrates were measured both in the absence and presence of compounds of the present invention. […] The results of this assay are expressed as the inhibitory constant, Ki app.
Urokinase inhibition determinations were made in 50 mM Tris (pH7.5), 150 mM NaCl, 0.05% Tween-20, 0.002% antifoam, and 1 mM EDTA. human Urokinase (from American Diagnostica, CT, USA). […] The enzyme assay routinely yielded linear progression curves under these conditions. Initial velocity measurements calculated from the progress curves by a kinetic analysis program (Batch Ki; Peter Kuzmic, BioKin, Ltd., Madison, Wis.) were used to determine Ki app.

Test [2] deals with T2, human Factor Xa (Homo sapiens, UniProt P00742).
T2 construct: purified human Factor Xa; purchased Haematologic Technologies, VT, USA
Kind of test: Factor Xa inhibition, chromogenic substrate hydrolysis, Ki app. Type of test: biochemical. The following applies: read-out: FXa Ki.
Description: as §1, §2
Factor Xa determinations were made in 50 mM Tris buffer, pH 7.5, containing 1M NaCl, 5 mM CaCl2, 0.05% Tween-20, and 1.5 mM EDTA. […] The enzyme assay routinely yielded linear progression curves under these conditions. Initial velocity measurements calculated from the progress curves by a kinetic analysis program (Batch Ki; Peter Kuzmic, BioKin, Ltd., Madison, Wis.) were used to determine Ki app.

Each structure is given as a SMILES string.

The results in this text go back to patent US6867200B1, “(Hetero)aryl-bicyclic heteroaryl derivatives, their preparation and their use as protease inhibitors” (Axys Pharmaceuticals, Inc., priority 1998, dated 2005).

T2 sequence (P00742 235-488 limits assumed): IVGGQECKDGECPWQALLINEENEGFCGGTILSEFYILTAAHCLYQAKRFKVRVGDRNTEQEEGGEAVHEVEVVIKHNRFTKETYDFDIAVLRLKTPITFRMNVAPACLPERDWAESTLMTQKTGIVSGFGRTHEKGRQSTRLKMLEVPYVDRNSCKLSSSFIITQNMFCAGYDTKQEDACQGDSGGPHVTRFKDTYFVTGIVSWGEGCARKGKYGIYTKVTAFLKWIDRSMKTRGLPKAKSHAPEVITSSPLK
T2 sequence (P00742 41-179 partner limits assumed): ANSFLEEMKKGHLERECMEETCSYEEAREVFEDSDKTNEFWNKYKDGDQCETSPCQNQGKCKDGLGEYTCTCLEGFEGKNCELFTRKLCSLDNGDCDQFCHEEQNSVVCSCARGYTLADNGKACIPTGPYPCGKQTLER

On to `N=C(N)c1ccc2[nH]c(-c3cc(CCC(=O)O)cc(Br)c3O)c(Cc3ccccc3)c2c1` [Ex. 802, 3-[3-(3-Benzyl-5-carbamimidoyl-1H-indol-2-yl)-5-bromo-4-hydroxy-phenyl]-propionic acid], for which the results for the Ki in test [1] and in test [2] were 260 nM and 0.618 nM, respectively. For `N=C(N)c1cc2cc(-c3cc(CC(=O)N4CCS(=O)(=O)CC4)cc(-c4ccccc4)c3O)[nH]c2cc1Cl` [compound 860] the same measures were 4 nM and 5400 nM. For `N=C(N)c1ccc2nc(-c3ccc(OCC(=O)NCc4cccc5ccccc45)cc3O)[nH]c2c1` [compound 258, 2-[4-(6-Carbamimidoyl-1H-benzoimidazol-2-yl)-3-hydroxy-phenoxy]-N-naphthalen-1-ylmethyl-acetamide], the Ki in test [2] is 460 nM. `Cc1cc(-c2ccccc2)c(O)c(-c2cc3cc(C(=N)N)ccc3[nH]2)c1` [compound 820]: the Ki in test [1] is 65 nM; in test [2], 298 nM.
